{"source": "ChEMBL document CHEMBL1122547", "about": "“Diastereomeric 6-desoxy-6-spiro-alpha-methylene-gamma-butyrolactone derivatives of naltrexone and oxymorphone. Selective irreversible inhibition of naltrexone binding in an opioid receptor preparation by a conformationally restricted michael acceptor ligand” (J Med Chem, 1984)", "key": {"[1]": {"assay": "Ratio of IC50(presence of NaCl) to that of IC50(absence of NaCl)"}, "Mus musculus [2]": {"organism": "Mus musculus", "assay": "Compound was tested for irreversible inhibition of [3H]- Naltrexone binding with 10 nM naloxone+5 nM protection in the presence of NaCl (washed)", "assay_type": "functional", "set-up": "scale not given: the % may be the effect or the level left"}, "Mus musculus [3]": {"organism": "Mus musculus", "assay": "Compound was tested for irreversible inhibition of [3H]- Naltrexone binding with 10 nM naloxone+ 5 nM protection in the presence of NaCl (washed)", "assay_type": "functional", "set-up": "scale not given: the % may be the effect or the level left"}, "Mus musculus [4]": {"organism": "Mus musculus", "assay": "Compound was tested for irreversible inhibition of [3H]- Naltrexone binding with 10 nM naloxone+ 5 nM protection in the presence of NaCl (unwashed)", "assay_type": "functional", "set-up": "scale not given: the % may be the effect or the level left"}}, "note": "“And” between values parts separate entries of the source, which are not always exact repeats. Equal values may be shown once."}
{"smiles": "C=C1CC2(CCC3(O)[C@H]4Cc5ccc(O)c6c5[C@@]3(CCN4C)C2O6)OC1=O", "note": "(stereo in doubt; 5b)", "values": [{"measurement": "Ratio", "setting": "[1]", "value": 7.1}]}
{"smiles": "C=C1CC2(CCC3(O)[C@H]4Cc5ccc(O)c6c5[C@@]3(CCN4C)C2O6)OC1=O", "note": "(stereo in doubt; 4b)", "values": [{"measurement": "Ratio", "setting": "[1]", "value": 7.6}]}
{"smiles": "C=C1CC2(CCC3(O)[C@H]4Cc5ccc(O)c6c5[C@@]3(CCN4CC3CC3)C2O6)OC1=O", "note": "(stereo in doubt; 4a)", "values": [{"measurement": "Ratio", "setting": "[1]", "value": 0.8}]}
{"smiles": "C=C1CC2(CCC3(O)[C@H]4Cc5ccc(O)c6c5[C@@]3(CCN4CC3CC3)C2O6)OC1=O", "note": "(stereo in doubt; 5a) [listing 1 of 2 here]", "values": [{"measurement": "Ratio", "setting": "[1]", "value": 0.4}]}
{"smiles": "C=C1CC2(CCC3(O)[C@H]4Cc5ccc(O)c6c5[C@@]3(CCN4CC3CC3)C2O6)OC1=O", "note": "(stereo in doubt; 5a) [listing 2 of 2 here]", "values": [{"measurement": "Control", "setting": "Mus musculus [2]", "value": 80, "unit": "%"}, {"measurement": "Control", "setting": "Mus musculus [3]", "value": 93, "unit": "%"}, {"measurement": "Control", "setting": "Mus musculus [4]", "value": "28% and 13%"}]}
